Measured values taken from US20080095737A1, “NON-TOXIC COATING COMPOSITION, METHODS OF USE THEREOF AND ARTICLES PROTECTED FROM ATTACHMENT OF BIOFOULING ORGANISMS” (Symrise GmbH & Co. KG, priority 2000, published 2008).
Values after ≈ are worked out from the molar mass of the structure shown. Values joined by “and” are separate entries in the source; they are usually repeats but may differ in a detail not shown here. Equal entries are not always repeated. Where two headings read alike, the source gives them in different places.

Experiments:
[1] = tested on: cyprid larvae of the barnacle, Balanus amphitrite Darwin; assay: Barnacle settlement inhibition assay; type: in vivo; conditions: for EC50: Amphibalanus amphitrite, read-out: EC50 (concentration which inhibited the settlement of 50% of the cyprid stage larvae); for efficacy as antifouling agents: in words
Text: Mary's College in Tuticorin, India. The barnacles were crushed and the nauplius stage larvae were collected for culture to the cyprid stage following the method of Rittschof et al., J. Exp. Mar. Biol. Ecol., 82:131146 (1984). The cyprid is the stage at which the barnacle larva is competent to attach to surfaces. Upon attachment to a surface, the larva then undergoes metamorphosis into a barnacle. Barnacle settlement assays were undertaken using the method described previously by Rittschof et al., J. Chem. […] Briefly, Falcon 50×9 mm plastic petri dishes were filled with 5 ml of filtered seawater at salinity of 33-35 parts per thousand (ppt) and into which 3-day old cyprid stage larvae were added. The test compounds were introduced at various concentrations into the dishes containing seawater. The test compounds included (-)menthol and (-)[…]-3,8-diol. Controls were represented by those dishes in which no test compound were added. After incubation at 28° C. for 9 hours, the dishes were examined under a dissecting microscope to determine if there was any mortality. […] Settlement data were expressed as the percentage of the larvae attached to the bottom of the dish. The same settlement assay was used to determine the effective concentration of a number of different compounds of formula I, above. The effective concentration (EC50) is that concentration which inhibited the settlement of fifty percent (50%) of the cyprid stage of the barnacle larvae present in a test sample.

[2] = tested on: nauplii of the barnacle, Balauus annphitrite Darwin; assay: Mortality of barnacle nauplii at the effective concentrations; conditions: prolonged exposure at the compound's EC50 concentration
[3] = tested on: barnacle, Balanus amphitrite Darwin; conditions: cited from earlier work
Aeromonas sp. (Ael) = assay: Agar diffusion assay, marine bacteria associated with B. amphitrite; type: cell-based; conditions: 0.004 mg/ml loaded on 6.5 mm disks
Flavobacterium sp. (F) = assay: as above; type: cell-based; conditions: 0.004 mg/ml loaded on 6.5 mm disks
[4] = tested on: other bacterial strains associated with B. amphitrite; assay: as above; type: cell-based; conditions: 0.004 mg/ml loaded on 6.5 mm disks
Vibrio sp. (V, & V,) = assay: Agar diffusion assay, marine bacteria associated with Perna sp; type: cell-based; conditions: procedure as Example 2
Dunaliella tertiolecta = assay: In vitro cell growth inhibition assay, marine unicellular algae; type: cell-based; conditions: 0.00001-1.0 mg/ml, cell counts at 24-hour intervals
Method: (§1) The in vitro cell growth inhibition assay used in this test is described in […], et al., J. Chem. Ecol., supra. Dunaliella tertiolecta is a marine micro algae cultured in the laboratory. Each test algae was inoculated from stock culture into flasks containing growth medium. (-)-menthol was added to the flask at various concentrations and the growth was monitored on each flask using a haemocytometer at 24-hour intervals up to the death phase of the culture.

Nitzchia sp. = assay: In vitro cell growth inhibition assay, Nitzchia sp; type: cell-based; conditions: 0.00001-1.0 mg/ml, compared to the control
Method: as §1, with “culture. The test procedure employed was substantially the same as described in Example 4, except that Nitzchia sp. was substituted for D. tertiolecta.” for “culture.”

fouling phytoplanktons = assay: Attachment of fouling phytoplanktons on painted submerged cement structures (seawater raceway); set-up: key: +++++: highest amount of fouling attachments; −: no appreciable fouling attachments; conditions: 5% by weight in paint on cement structure, 60 days in seawater raceway
Method: A raceway measuring 100 feet long, 15 feet wide and 3 feet deep was constructed near the sea and lined with a plastic liner. Seawater was pumped directly from the sea and the Growth of naturally occurring plankton was induced by fertilization of the seawater. The total volume of the seawater was approximately 150 cubic meters. The water was circulated and aerated using a paddlewheel. Samples of the seawater were analyzed after 30 days and found to contain the following species of diatoms: Grammatophoria ocean ica, Nitzschia sp., A,inphora sp., Amphora bigilba, Thalassiothrix sp., Stauroneis sp., Licniophora sp., and Navicula sp. The seawater also contained the dinoflagellate, Peridhan sp., and the blue Green algae, Ocillatoria sp. and Rivularia sp.
A conventional paint formulation that was free of any tributyl tin compounds was used as a control. Paint formulations embodying the present invention were prepared by incorporating (−)-menthol and (−)-(trans)-p-menthan-3,8-diol at a dose concentration of 5 percent (5%) by weight of each compound into the same paint vehicle used for the control formulation, and these two formulations were painted on separate surfaces of cement structures placed in the raceway. The controls consisted of unpainted cement surface and surface painted with the control formulation. […]

[5] = tested on: barnacle, Balanus amphitrite communis; assay: Painted iron panels submerged in the sea, barnacle attachment; conditions: cuprous oxide-containing marine paint on iron panels, submerged 78 weeks; control paint = 100
Method: A floating platform was constructed using layers of bamboo and styrofoam floats. The platform was designed with holders to accommodate test panels measuring 4 inches×12 inches×0.25 inches.
A first experimental paint was prepared, containing a biocidally effective amount of cuprous oxide and no other biocide which was used as the control. To this composition was added a combination of 0.5%, by weight of (−)-trans-pmenthan-3,8-diol and 0.50 of (−)-menthol (Composition A). A second paint composition was prepared from the same marine paint vehicle containing cuprous oxide, to which was added 2% by weight of (−)-menthol (Composition B). A third formulation was made from the same cuprous oxide-containing marine paint vehicle, to which was added 2% by weight of (−)-trans-p-menthan-3,8-diol (Composition C).
Solid iron panels having the above-mentioned dimensions were painted with the paint formulations thus prepared, placed in the holders in the floating platform and submerged continuously near the center of Bitac Cove in San Dionisio Bay (Philippines) for a period of 78 weeks. The panels were examined for a few minutes every three months and immediately resubmerged after photography. After 78 weeks, the panels were removed and inspected. The numbers of barnacles attached to the panels were counted. […]

[6] = tested on: other bacterial strains associated with Perna sp; assay: Agar diffusion assay, marine bacteria associated with Perna sp; conditions: procedure as Example 2
[7] = settlement assay, cyprid larvae

## CC1CCC(C(C)C)C(OCC(O)CO)C1 (centres unmarked) [menthoxypropanediol, 3-[[5-methyl-2-(1-methylethyl)cyclohexyl]oxy]-1,2-propanediol]
[1]; [7]
  EC50: 0.002 µg/mL (≈ 0.00868 µM)
[1]; settlement assay
  efficacy as antifouling agents: superior efficacy

## CC1CCC(C(C)C)C(=O)C1 (single isomer, unassigned; (-)) [(−)-menthone]
[1]
  EC50: 1 µg/mL (≈ 6.48 µM)
[2]
  mortality of barnacle nauplii: did not show any mortality

## CCC[CH2][Sn]([Cl])([CH2]CCC)[CH2]CCC [TBT chloride]
[3]
  acute toxicity, estimated dose: ~3.4 μg (microgram) per liter
[3]; same value restated
  acute toxicity, estimated dose: ~0.0000034 grams/liter

## CC1CCC(C(C)C)C(Cl)C1 (single isomer, unassigned; (-)) [(−)-menthyl chloride]
[1]
  EC50: 0.1 µg/mL
[2]
  mortality of barnacle nauplii: did not show any mortality

## C=C(C)C1CCC(C)CC1O (single isomer, unassigned; (-)) [(−)-isopulegol, 5-methyl-2-(1-methylethenyl)cyclohexanol]
[1]; [7]
  EC50: 0.088 µg/mL (≈ 0.57 µM)
[1]; settlement assay
  efficacy as antifouling agents: superior efficacy

## CC1CCC(C(C)C)C(O)C1 (single isomer, unassigned; (-)) [(−)-menthol]
[1]
  EC50: 4 µg/mL (≈ 25.6 µM)
[1]; each of five concentrations tested (concentrations not given), in order, last = highest, 9 hours at 28° C., control 59% (diol) / 58% (menthol)
  settlement (percentage of the larvae attached to the bottom of the dish): 39% and 34% and 26% and 23% and 21%
Aeromonas sp. (Ael)
  zone of inhibition, radius: greater than 10 mm
Flavobacterium sp. (F)
  zone of inhibition, radius: greater than 10 mm
[4]
  sensitivity of bacterial strains: moderately sensitive
Vibrio sp. (V, & V,)
  zone of inhibition, radius: greater than 8.5 mm
Dunaliella tertiolecta
  inhibition of growth: effective in inhibiting the growth of this micro algae in a dose dependent manner
Nitzchia sp.
  inhibition of growth rate: effective at all of the concentrations tested in inhibiting the growth rate
Fouling phytoplanktons
  DEGREE OF BIOFOULING: −
[5]
  % Settlement: 16.1%
[2]
  mortality of barnacle nauplii: did not show any mortality
[6]
  sensitivity of bacterial strains: moderately sensitive

## CC1CCC(C(C)(C)O)C(O)C1 (single isomer, unassigned; (-)) [(−)-trans-p-menthan-3,8-diol]
[1]
  EC50: 1 µg/mL (≈ 5.8 µM)
Fouling phytoplanktons
  DEGREE OF BIOFOULING: −
[5]
  % Settlement: 27.1%
[2]
  mortality of barnacle nauplii: did not show any mortality
